Where a name gives a salt, the structure may show the parent alone. A value given as a limit tells only on which side of the number the result lay.

For the assay, the target named is T1, human HPK1 (MAP4K1) (Homo sapiens, UniProt Q92918).
T1 construct: Recombinant human HPK1 kinase domain was obtained from ThermoFisher (Cat. #PV6357) and SignalChem (Cat. #M23-11G); purchased ThermoFisher; SignalChem PV6357; M23-11G
T1 sequence (Q92918 17-274 limits assumed): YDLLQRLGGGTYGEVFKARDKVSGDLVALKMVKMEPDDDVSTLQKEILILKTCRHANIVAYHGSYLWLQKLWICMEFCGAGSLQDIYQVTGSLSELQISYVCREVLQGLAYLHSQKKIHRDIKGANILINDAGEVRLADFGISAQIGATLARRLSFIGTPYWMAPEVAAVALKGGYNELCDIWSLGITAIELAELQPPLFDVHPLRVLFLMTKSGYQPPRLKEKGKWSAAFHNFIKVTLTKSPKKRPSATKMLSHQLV
Nature of the assay: Biochemical assay for activity against HPK1 (ADP-Glo, MBP substrate). To be noted: recombinant human HPK1 kinase domain, 1 nM enzyme, ADP-Glo luminescence. Summed up:
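Recombinant human HPK1 kinase domain (1 nM solution) preincubated 15 min at room temperature with compounds in pH 7.5 HEPES buffer with NaCl, TCEP, MgCl2, Tween-20, BSA. MBP substrate with ATP added, reaction run 2 h at room temperature. ADP formation read by ADP-Glo luminescence to give IC50.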
With `CN1CCc2ccc(Nc3ncc4cnn(C5CCNCC5)c4n3)cc2C1` [Example 16, 2-methyl-N-(1-(piperidin-4-yl)-1H-pyrazolo[3,4-d]pyrimidin-6-yl)-1,2,3,4-tetrahydroisoquinolin-7-amine hydrochloride], the IC50 was less than 100 nM.

With `COc1cc2c(cc1Nc1ncc3cnn(C[C@@H]4C[C@H](F)CN4C(C)=O)c3n1)CN(CCO)CC2` [Example 222, 1-((2S,4S)-4-fluoro-2-((6-((2-(2-hydroxyethyl)-6-methoxy-1,2,3,4-tetrahydroisoquinolin-7-yl)amino)-1H-pyrazolo[3,4-d]pyrimidin-1-yl)methyl)pyrrolidin-1-yl)ethan-1-one], the IC50 is less than 100 nM.

`COc1cc2c(cc1Nc1ncc3cnn(C[C@@H]4C[C@@H]4F)c3n1)CN(C)CC2` (racemic) [Example 207, N-(1-(((cis)-2-fluorocyclopropyl)methyl)-1H-pyrazolo[3,4-d]pyrimidin-6-yl)-6-methoxy-2-methyl-1,2,3,4-tetrahydroisoquinolin-7-amine]: the IC50 was less than 100 nM. Then `COc1cc2c(cc1Nc1ncc3c(C(F)(F)F)nn(C(C)C)c3n1)CN(C)CC2` [Example 7, N-(1-isopropyl-3-(trifluoromethyl)-1H-pyrazolo[3,4-d]pyrimidin-6-yl)-6-methoxy-2-methyl-1,2,3,4-tetrahydroisoquinolin-7-amine], with less than 100 nM; and `COc1cc2c(cc1Nc1ncc3cnn(C[C@H]4[C@H](C)CCN4C(C)=O)c3n1)CN(C)CC2` (single isomer, unassigned) [Example 147], with 100 to 250 nM. To `COc1cc2c(cc1Nc1ncc3cnn(C4CC5(CCN(C(C)=O)CC5)C4)c3n1)CN(C)CC2` [Example 81, 1-(2-(6-((6-methoxy-2-methyl-1,2,3,4-tetrahydroisoquinolin-7-yl)amino)-1H-pyrazolo[3,4-d]pyrimidin-1-yl)-7-azaspiro[3.5]nonan-7-yl)ethan-1-one] belongs less than 100 nM. Then `COc1cc2c(cc1Nc1ncc3cnn([C@H]4CCC[C@H](C(N)=O)C4)c3n1)CN(C)CC2` (racemic) [Example 29, rac-(1S,3S)-3-(6-((6-methoxy-2-methyl-1,2,3,4-tetrahydroisoquinolin-7-yl)amino)-1H-pyrazolo[3,4-d]pyrimidin-1-yl)cyclohexane-1-carboxamide], with less than 100 nM; and `CN1CCc2ccc(Nc3ncc4cnn(CC5COC5)c4n3)cc2C1` [Example 14, 2-methyl-N-(1-(oxetan-3-ylmethyl)-1H-pyrazolo[3,4-d]pyrimidin-6-yl)-1,2,3,4-tetrahydroisoquinolin-7-amine], with less than 100 nM. On to `COc1cc2c(cc1Nc1ncc3cnn(C(C)C)c3n1)CN(C)CC2` [Example 104, N-(1-isopropylpyrazolo[3,4-d]pyrimidin-6-yl)-6-methoxy-2-methyl-3,4-dihydro-1H-isoquinolin-7-amine], for which the IC50 is less than 100 nM. Then `COc1cc2c(cc1Nc1ncc3cnn(C[C@@H]4C[C@H](O)CN4C(C)=O)c3n1)CN(C)CC2` [Example 221, 1-((2S,4S)-4-hydroxy-2-((6-((6-methoxy-2-methyl-1,2,3,4-tetrahydroisoquinolin-7-yl)amino)-1H-pyrazolo[3,4-d]pyrimidin-1-yl)methyl)pyrrolidin-1-yl)ethan-1-one], with less than 100 nM; and `COc1cc2c(cc1Nc1ncc3cnn(C[C@@H]4COCCN4C(C)=O)c3n1)CN(C)CC2` [Example 129, (R)-1-(3-((6-((6-methoxy-2-methyl-1,2,3,4-tetrahydroisoquinolin-7-yl)amino)-1H-pyrazolo[3,4-d]pyrimidin-1-yl)methyl)morpholino)ethan-1-one trifluoroacetate], with less than 100 nM; and `CN1CCc2c(cc(Nc3ncc4cnn([C@@H]5CCC[C@@H](C(N)=O)C5)c4n3)cc2C(F)(F)F)C1` [Example 180, (1R,3R)-3-(6-((2-methyl-5-(trifluoromethyl)-1,2,3,4-tetrahydroisoquinolin-7-yl)amino)-1H-pyrazolo[3,4-d]pyrimidin-1-yl)cyclohexane-1-carboxamide], with less than 100 nM. Then `COc1cc2c(cc1Nc1ncc3cnn(C[C@H](C)NS(C)(=O)=O)c3n1)CN(C)CC2` [Example 94, N-[(1S)-2-[6-[(6-methoxy-2-methyl-3,4-dihydro-1H-isoquinolin-7-yl]amino]pyrazolo[3,4-d]pyrimidin-1-yl]-1-methyl-ethyl]methanesulfonamide], with 100 to 250 nM. For the compound `CN1CCc2ccc(Nc3ncc4cnn([C@H]5CCOC5)c4n3)cc2C1` [Example 19, (S)-2-methyl-N-(1-(tetrahydrofuran-3-yl)-1H-pyrazolo[3,4-d]pyrimidin-6-yl)-1,2,3,4-tetrahydroisoquinolin-7-amine], the IC50 was less than 100 nM.

For the compound `COc1cc2c(cc1Nc1ncc3cnn(C[C@@H]4CCCN4C(C)=O)c3n1)C(C(F)(F)F)N(C)CC2` (stereo partly drawn) [Example 208, 1-((2S)-2-((6-((6-methoxy-2-methyl-1-(trifluoromethyl)-1,2,3,4-tetrahydroisoquinolin-7-yl)amino)-1H-pyrazolo[3,4-d]pyrimidin-1-yl)methyl)pyrrolidin-1-yl)ethan-1-one], the IC50 was less than 100 nM. Then `COc1cc2c(cc1Nc1ncc3cnn(C[C@@H]4CCCN(S(C)(=O)=O)C4)c3n1)CN(C)CC2` [Example 141, 6-methoxy-2-methyl-N-[1-[[(3S)-1-methylsulfonyl-3-piperidyl]methyl]pyrazolo[3,4-d]pyrimidin-6-yl]-3,4-dihydro-1H-isoquinolin-7-amine], with less than 100 nM. To `COc1cc2c(cc1Nc1ncc3cnn([C@@H]4CC[C@H](CO)C4)c3n1)CN(C)CC2` (relative stereo) [Example 24] belongs less than 100 nM; to `COc1cc2c(cc1Nc1ncc3cnn([C@H]4CC[C@H](NC(=O)CO)CC4)c3n1)CN(C)CC2` [Example 74, trans-2-hydroxy-N-[4-[6-[(6-methoxy-2-methyl-3,4-dihydro-1H-isoquinolin-7-yl)amino]pyrazolo[3,4-d]pyrimidin-1-yl]cyclohexyl]acetamide], less than 100 nM; to `COc1cc2c(cc1Nc1ncc3c(C)nn(CC[C@H](C)O)c3n1)CN(C)CC2` [Example 90, (2S)-4-[6-[(6-methoxy-2-methyl-3,4-dihydro-1H-isoquinolin-7-yl)amino]-3-methyl-pyrazolo[3,4-d]pyrimidin-1-yl]butan-2-ol], less than 100 nM. To `COc1cc2c(cc1Nc1ncc3cnn(C[C@@H]4[C@H]5C[C@H]5CN4C(C)=O)c3n1)CN(C)CC2` [Example 220, 1-[(1S,2S,5R)-2-[[6-[(6-methoxy-2-methyl-3,4-dihydro-1H-isoquinolin-7-yl)amino]pyrazolo[3,4-d]pyrimidin-1-yl]methyl]-3-azabicyclo[3.1.0]hexan-3-yl]ethanone] belongs less than 100 nM. Take `CC(C)n1ncc2cnc(Nc3ccc4c(c3)CN(C)CC4)nc21` [Example 101, N-(1-isopropyl-1H-pyrazolo[3,4-d]pyrimidin-6-yl)-2-methyl-1,2,3,4-tetrahydroisoquinolin-7-amine]: the IC50 is less than 100 nM. Then `COc1cc2c(cc1Nc1ncc3cnn([C@H]4CCC[C@@H](O)C4)c3n1)CN(C)CC2` (relative stereo) [Example 23, cis-3-(6-((6-methoxy-2-methyl-1,2,3,4-tetrahydroisoquinolin-7-yl)amino)-1H-pyrazolo[3,4-d]pyrimidin-1-yl)cyclohexan-1-ol], with less than 100 nM.

Take `COCCN1CCc2cc(OC)c(Nc3ncc4cnn(C[C@@H]5CCCN5C(C)=O)c4n3)cc2C1` [Example 197, (S)-1-(2-((6-((6-methoxy-2-(2-methoxyethyl)-1,2,3,4-tetrahydroisoquinolin-7-yl)amino)-1H-pyrazolo[3,4-d]pyrimidin-1-yl)methyl)pyrrolidin-1-yl)ethan-1-one Hydrochloride]: the 50% inhibitory concentration (IC50) was less than 100 nM. To `CN1CCc2ccc(Nc3ncc4cnn([C@H]5CC[C@H](C(=O)O)CC5)c4n3)cc2C1` [Example 32, (1r,4r)-4-(6-((2-methyl-1,2,3,4-tetrahydroisoquinolin-7-yl)amino)-1H-pyrazolo[3,4-d]pyrimidin-1-yl)cyclohexane-1-carboxylic acid] belongs less than 100 nM; to `COc1cc2c(cc1Nc1ncc3c(C)nn(C[C@@H]4CCCN4S(C)(=O)=O)c3n1)CN(C)CC2` [Example 116, (S)-6-methoxy-2-methyl-N-(3-methyl-1-((1-(methylsulfonyl)pyrrolidin-2-yl)methyl)-1H-pyrazolo[3,4-d]pyrimidin-6-yl)-1,2,3,4-tetrahydroisoquinolin-7-amine], 100 to 250 nM. Then `CNC(=O)[C@H]1CC[C@H](n2ncc3cnc(Nc4cc5c(cc4OC)CCN(C)C5)nc32)CC1` [Example 60, (1r,4r)-4-(6-((6-methoxy-2-methyl-1,2,3,4-tetrahydroisoquinolin-7-yl)amino)-1H-pyrazolo[3,4-d]pyrimidin-1-yl)-N-methylcyclohexane-1-carboxamide], with less than 100 nM. Then `COc1cc2c(cc1Nc1ncc3cnn([C@H]4C[C@@H](CNS(C)(=O)=O)C4)c3n1)CN(C)CC2` [Example 125, N-((cis-3-(6-((6-methoxy-2-methyl-1,2,3,4-tetrahydroisoquinolin-7-yl)amino)-1H-pyrazolo[3,4-d]pyrimidin-1-yl)cyclobutyl)methyl)methanesulfonamide], with 100 to 250 nM. In the case of `COc1cc2c(cc1Nc1ncc3cnn([C@H]4CC[C@H](O)CC4)c3n1)CN(C)CC2` [Example 49, trans-4-(6-((6-methoxy-2-methyl-1,2,3,4-tetrahydroisoquinolin-7-yl)amino)-1H-pyrazolo[3,4-d]pyrimidin-1-yl)cyclohexan-1-ol], the IC50 is less than 100 nM.

These data come from patent publication US11918582B2 (RAPT Therapeutics, Inc., priority 2021, dated 2024).
